# According to patent publication US11339171B2, “MDM2 inhibitors” (Gan & Lee Pharmaceuticals, priority 2017, dated 2022):
# Where “and” joins values, the source holds several entries; their conditions need not be identical. Equal values may be shown once. Read-outs that look alike come from different tables or passages of the source.
# How the values were obtained:
# [1] = Pharmacokinetics in ICR mice after intravenous and intragastric administration; assay type: in vivo; details: for MRT last: read-out: MRT(0-t); for MRT inf: read-out: MRT(0-∞); for Vd: read-out: Vz
# Outline: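 Male ICR mice aged 6-9 weeks are dosed after an overnight fast, intravenously at 2 mg/kg and orally by gavage at 5 mg/kg. Plasma drug is measured by LC-MS/MS over a 1-2000 ng/ml range.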
# [2] = biological target: T1, MDM2 (Homo sapiens, UniProt Q00987); assay: Inhibition test of MDM2-P53 (GST-MDM2, Biotin-P53, Anti-GST-Tb, SA-XL665); assay type: binding
# T1 construct: made in house
# Outline: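 HTRF-type assay using 4 nM GST-MDM2 (final), Biotin-P53, SA-XL665 and anti-GST-Tb in PBS with 0.1% BSA, 5 mM DTT and 1 mM AEBSF. Compounds in 5-fold serial dilutions over twelve points; incubation 90 min at 25° C with shaking before plate-reader read-out.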
# [3] = tested on: human osteosarcoma cell line SJSA-1; assay: Inhibition of proliferation of human osteosarcoma cell line SJSA-1 (DAPI staining, In Cell Analyzer); details: Homo sapiens, SJSA-1, 72 h, read-out: IC50 (nM), inhibitory activity on proliferation of human osteosarcoma cell line SJSA-1, SJSA-1, incubated 72 h
# [4] = ICR mice, IV 2 mg/kg, individual animal, 2 mg/kg
# [5] = ICR mice, PO 5 mg/kg, individual animal, 5 mg/kg
# [6] = male, ICR, mouse, plasma, iv, 2 mg/kg, ICR mice, IV 2 mg/kg, individual animal
# [7] = male, ICR, mouse, plasma, iv, 2 mg/kg, ICR mice, IV 2 mg/kg, mean of 3 animals
# [8] = male, ICR, mouse, plasma, po, 5 mg/kg, ICR mice, PO 5 mg/kg, individual animal
# [9] = male, ICR, mouse, plasma, po, 5 mg/kg, ICR mice, PO 5 mg/kg, mean of 3 animals
# T1 sequence (Q00987 whole entry): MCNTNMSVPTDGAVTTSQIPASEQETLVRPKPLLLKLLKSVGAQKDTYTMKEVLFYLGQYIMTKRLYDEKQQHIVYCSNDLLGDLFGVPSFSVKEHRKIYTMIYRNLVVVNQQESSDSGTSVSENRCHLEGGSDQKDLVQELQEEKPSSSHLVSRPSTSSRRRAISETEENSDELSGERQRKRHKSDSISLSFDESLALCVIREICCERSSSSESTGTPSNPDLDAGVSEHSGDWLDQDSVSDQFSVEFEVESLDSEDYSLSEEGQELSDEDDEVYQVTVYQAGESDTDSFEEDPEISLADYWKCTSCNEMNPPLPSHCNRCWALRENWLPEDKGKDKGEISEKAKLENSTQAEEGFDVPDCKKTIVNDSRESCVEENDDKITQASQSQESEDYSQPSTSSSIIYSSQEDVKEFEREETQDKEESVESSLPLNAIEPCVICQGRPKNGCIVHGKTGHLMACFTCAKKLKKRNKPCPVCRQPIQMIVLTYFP
smiles,measurement,setting,value
"COc1ccc(-c2nc3c(n2C(C)C)[C@@]2(C(=O)Nc4cc(Cl)ccc42)N(c2cc(Cl)cnc2C)C3=O)c(OC)c1 [Example S-61, (S)-6-chloro-5′-(5-chloro-2-methylpyridin-3-yl)-2′-(2,4-dimethoxyphenyl)-3′-isopropyl-3′H-spiro[dihydroindole-3,4′-pyrrolo[3,4-d]imidazole]-2,6′(5′H)-dione]",AUC(0-t),[1]; [4],5346.76 ng·h/mL and 4640.74 ng·h/mL
same,AUC(0-∞),[1]; [4],5483.62 ng·h/mL and 4724.28 ng·h/mL
same,CL,[1]; [4],6.08 mL/min/kg and 7.06 mL/min/kg
same,Cmax,[1]; [4],3244.96 ng/mL and 2994.43 ng/mL
same,MRT(0-t),[1]; [4],1.26 h and 1.21 h
same,MRT(0-∞),[1]; [4],1.42 h and 1.32 h
same,Vz,[1]; [4],0.60 L/kg and 0.67 L/kg
same,t1/2,[1]; [4],1.15 h and 1.09 h
same,AUC(0-t),[1]; [5],2462.65 ng·h/mL and 4960.30 ng·h/mL and 3162.34 ng·h/mL
same,AUC(0-∞),[1]; [5],5500.70 ng·h/mL and 3530.81 ng·h/mL
same,Cmax,[1]; [5],2489.40 ng/mL and 1772.67 ng/mL
same,MRT(0-t),[1]; [5],2.03 h and 1.91 h
same,MRT(0-∞),[1]; [5],3.00 h
same,Tmax,[1]; [5],0.50 h
same,t1/2,[1]; [5],2.71 h and 2.98 h
same,AUC(0-inf),[1]; [6],3630 ng·h/mL
same,clearance,[1]; [6],9.19 mL/min/kg
same,AUC(0-t),"[1]; male, ICR, mouse, plasma, iv, 2 mg/kg, ICR mice, IV 2 mg/kg, individual animal, read-out: AUC(0-t)",3580 ng·h/mL
same,Cmax,"[1]; male, ICR, mouse, plasma, iv, 2 mg/kg, ICR mice, IV 2 mg/kg, individual animal, read-out: Cmax",3250 ng/mL
same,MRT last,[1]; [6],0.99 h
same,MRT inf,[1]; [6],1.07 h
same,Tmax,"[1]; male, ICR, mouse, plasma, iv, 2 mg/kg, ICR mice, IV 2 mg/kg, individual animal, read-out: Tmax",0.08 h
same,Vd,[1]; [6],0.8 L/kg
same,half-life,"[1]; male, ICR, mouse, plasma, iv, 2 mg/kg, ICR mice, IV 2 mg/kg, individual animal, read-out: t1/2 (converted)",1 h
same,AUC(0-inf),[1]; [7],4610 ng·h/mL
same,clearance,[1]; [7],7.44 mL/min/kg
same,AUC(0-t),"[1]; male, ICR, mouse, plasma, iv, 2 mg/kg, ICR mice, IV 2 mg/kg, mean of 3 animals, read-out: AUC(0-t)",4520 ng·h/mL
same,Cmax,"[1]; male, ICR, mouse, plasma, iv, 2 mg/kg, ICR mice, IV 2 mg/kg, mean of 3 animals, read-out: Cmax",3160 ng/mL
same,MRT last,[1]; [7],1.15 h
same,MRT inf,[1]; [7],1.27 h
same,Tmax,"[1]; male, ICR, mouse, plasma, iv, 2 mg/kg, ICR mice, IV 2 mg/kg, mean of 3 animals, read-out: Tmax",0.083 h
same,Vd,[1]; [7],0.69 L/kg
same,half-life,"[1]; male, ICR, mouse, plasma, iv, 2 mg/kg, ICR mice, IV 2 mg/kg, mean of 3 animals, read-out: t1/2 (converted)",1.08 h
same,AUC(0-inf),[1]; [8],2770 ng·h/mL
same,Cmax,"[1]; male, ICR, mouse, plasma, po, 5 mg/kg, ICR mice, PO 5 mg/kg, individual animal, read-out: Cmax",2430 ng/mL
same,MRT last,[1]; [8],1.57 h
same,MRT inf,[1]; [8],2.85 h
same,Tmax,"[1]; male, ICR, mouse, plasma, po, 5 mg/kg, ICR mice, PO 5 mg/kg, individual animal, read-out: Tmax",0.25 h
same,half-life,"[1]; male, ICR, mouse, plasma, po, 5 mg/kg, ICR mice, PO 5 mg/kg, individual animal, read-out: t1/2 (converted)",3.58 h
same,AUC(0-inf),[1]; [9],3930 ng·h/mL
same,AUC(0-t),"[1]; male, ICR, mouse, plasma, po, 5 mg/kg, ICR mice, PO 5 mg/kg, mean of 3 animals, read-out: AUC(0-t)",3530 ng·h/mL
same,Cmax,"[1]; male, ICR, mouse, plasma, po, 5 mg/kg, ICR mice, PO 5 mg/kg, mean of 3 animals, read-out: Cmax",2230 ng/mL
same,MRT last,[1]; [9],1.84 h
same,MRT inf,[1]; [9],2.95 h
same,Tmax,"[1]; male, ICR, mouse, plasma, po, 5 mg/kg, ICR mice, PO 5 mg/kg, mean of 3 animals, read-out: Tmax",0.33 h
same,half-life,"[1]; male, ICR, mouse, plasma, po, 5 mg/kg, ICR mice, PO 5 mg/kg, mean of 3 animals, read-out: t1/2 (converted)",3.09 h
same,AUC(0-t),"[1]; male, ICR, mouse, plasma, po, 5 mg/kg, oral intragastric administration 5 mg/kg, read-out: AUC0-t",3530 ng·h/mL
same,half-life,"[1]; male, ICR, mouse, plasma, po, 5 mg/kg, oral intragastric administration 5 mg/kg, read-out: half-life (converted)",3.09 h
same,bioavailability,"[1]; male, mouse, plasma, ICR mice, PO 5 mg/kg vs IV 2 mg/kg, from mean values, read-out: F* (bioavailability)",31.2%
same,IC50,[2],1.31 nM
same,IC50,[3],5.5 nM
